The text below walks through data of US12453358B2, “Theanine-producing strain and use thereof in tea fermentation production” (GUANGZHOU ZHONGZHUANG BEAUTY COSMETICS CO., LTD, priority 2024, dated 2025).

For one assay, the system named is MMP-1. In words: Anti-wrinkle index test: MMP-1 content in supernatant of UVA-stimulated fibroblasts (ELISA). The format is cell-based, human. Particulars: UVA 7 J/cm^2, samples 24 h, black tea fermentation liquor 6%, VC 80 µg/ml, GSH 20 m/ml. As to the method:
(§1) Test of anti-wrinkle index of fibroblasts: fibroblasts were set with a blank control group, a model group, a positive control group and a sample group. The number of cells per well was controlled to be 5×10^5. After incubation at 37° C. for 24 h in a 5% CO2 incubator, the medium was removed and a small amount of PBS (pH of 7.4) was added to just cover the cells. The cells were stimulated with UVA at the UV radiation dose of 7 J/cm^2, and the blank control group was not radiated. PBS was discarded, samples with different concentrations were added, with the addition concentration of the black tea fermentation liquor being 6%, VC being 80 µg/ml, and GSH being 20 m/ml; and the cells were stimulated for 24 h. The cell culture supernatants were centrifuged for 15 min at 4° C. and 1000 g, and the supernatants were tested for MMP-1 content using human matrix metalloproteinase-1 (MMP-1) ELISA Kit. The cell suspension was diluted with PBS (pH of 7.2-7.4) to obtain a cell concentration of 1×10^6 cells/mL, and the cells were ruptured after repeated freeze-thaw treatment. The cells were centrifuged at 1000 g for 20 min to obtain the supernatant, which was used to test the CoLI content using a type I collagen (CoLI) test box, and test the HA content using human hyaluronic acid (HA) ELISA Kit. All operations were conducted in accordance with the kit instructions.

The subject of another assay is type I collagen (CoLI). The experiment in a line: Anti-wrinkle index test: CoL I content in UVA-stimulated fibroblasts (type I collagen test box). Particulars: UVA 7 J/cm^2, samples 24 h, black tea fermentation liquor 6%, VC 80 µg/ml, GSH 20 m/ml. The format is cell-based. How it is done:
as §1

A further assay concerns hyaluronic acid (HA). In words: Anti-wrinkle index test: HA content in UVA-stimulated fibroblasts (ELISA). Type of assay: cell-based, human. The note with it: UVA 7 J/cm^2, samples 24 h, black tea fermentation liquor 6%, VC 80 µg/ml, GSH 20 m/ml. As to the method: as §1
Assay [1] has as its system theanine synthesis system. The experiment in a line: High throughput screening of alanine decarboxylase CsAlaDC mutant enzyme in theanine synthesis system. The format is biochemical, Escherichia coli. How it is done: First, a BL21-GMAS-CsAlaDC recombinant single colony was selected and loaded onto a 96-well plate, added into a 800 μL LB medium, and cultured at 37° C. and 900 r/min for 6 h; thereafter, IPTG (isopropyl-3-D-thiogalactoside) at a final concentration of 0.1 mM was added, and cultured at 24° C. for 16 h. Into the 96-well plate, 0.1 mL glycerol, 200 μL potassium glutamate of 50 mM, 200 μL alanine of 50 mM, 50 μL ATP of 10 mM, 80 μL MgCl2 of 5 mM, 85 μL DTT of 10 mM, and 85 μL Tris-HCl of 100 mM (pH 7.5) were sequentially added, to form a theanine synthesis system. The synthesis reaction was conducted for 24 h in a 30° C. water bath and repeated three times. […]
Color developing solution: 1.0 g/L soluble starch was weighed, mixed with distilled water, and boiling distilled water was added. […] After cooling, insoluble substances were filtered through a quantitative filter paper, and 1.0 g sodium hydroxide was added. […]
10 mL EP tubes were taken, 1 mL theanine sample and 4 mL sodium bicarbonate solution were added to one tube, and 5 mL sodium bicarbonate solution was added to the other tube, mixed and then stood for 5 min. […] Immediately after being mixed well, their absorbance values were respectively measured at the wavelength of 570 nm on the spectrophotometer by using distilled water as reference and with a cuvette. A high absorbance at 570 nm indicates a high theanine content. […]

Molecule `N[C@@H](CCC(=O)N[C@@H](CS)C(=O)NCC(=O)O)C(=O)O` [GSH] displayed an MMP-1 content in the assay on MMP-1 of 21.17. Also, the “CoL I content” value with type I collagen (CoLI) is recorded as 6.89. The HA content in the assay on hyaluronic acid (HA) was 5.45.

The molecule `O=C1O[C@H]([C@@H](O)CO)C(O)=C1O` [VC] displayed an MMP-1 content in the assay on MMP-1 of 20.42. In addition, the “CoL I content” value in the assay with type I collagen (CoLI) stood at 2.45. In the assay on hyaluronic acid (HA), this molecule had an HA content of 4.38.

B1: CsAlaDC-I177Y (protein)
chain: MEGTVSVLSNVSKVELLSKCFDLITIPVEPLPPVVASNGVAGGETKKMKEKDIVLGKNVHTTSLTITEPDVDDDSTSDMEAFMAGVLVRYRKTLIEKTKYHLGYPFNLDLDYGPLAELQHFAINNLGDPFIESNYGVHSRQFEVGVLDWFARLWEIEQKEYWGYITNGGTEGNLHGYLVGREVFPDGIFYTSRESHYSIFKAARMYRMECVKVGTLINGEIDCADFKAKLLSNKDKPAIINLNIGTTVKGAVDDIDLVIQTLEECGFSHDRFYIHCDGALFGFMMPFLNRGPKITFKKPIGSVSVSGHKFMGCPTPCGVQITRLEHINALSRNVEYLASRDATITGSRNGHSPIILWYALNRKGFKGFQKEVQKCLRNAHYLKDRLREAGISAMLNELSSTVVFERPLDEEFVRRWQLACEGNMAHVIVMPNVTIEKLDEFLNELVQKRANWYNDGKAGPPCLAPDIGSENCDCDLHK
With B1, the “content of theanine catalyzed by the enzyme” value in assay [1] (BL21-GMAS-CsAlaDC recombinant, glutamate + alanine + ATP, no ethylamine, 30° C., 24 h) was determined as 93.6 µM. In addition, the “theanine content higher than that of original enzyme CsAlaDC” value in assay [1] (compared with original enzyme CsAlaDC) is 85%.
